Results from patent US20220296534A1 (SOCIETE DES PRODUITS NESTLE S.A., priority 2019, published 2022).

What was measured:
[1] = humans; cited from earlier work
human primary islets = assay: Glucose stimulated insulin secretion in human primary islets, insulin by ELISA; format: cell-based; details: 1 μM, FIG. 3
Method: The insulin concentration in the collected supernatants were measured by an ELISA kit according to the manufacturer recommendations and using a rat insulin antibody (Insulin rat high range ELISA Alpco Cat no 80-INSRTH-E10). Very briefly, rat monoclonal antibodies specific for insulin were immobilized to 96-well plates. Standards, samples and controls were added to the appropriate wells with a horseradish peroxidase enzyme-labeled monoclonal antibody (Conjugate). After incubation, the microplates were washed to remove unbound Conjugate and a TMB substrate solution was added to react with the bound Conjugate. Finally, after addition of a stop solution, the optical density was measured at 450 nm using a reference wavelength of 620 nm. The intensity of the yellow color is directly proportional to the amount of insulin within the samples. Human primary islets: Human islets from non-diabetic deceased male donors were purchased from Tebu-bio (Le-Perray-en-Yvelines, France). […] Insulin in supernatants was determined with specific ELISA kits, according to the manufacturer's instructions (Ultrasensitive Insulin ELISA, ALPCO Diagnostics, Salem, USA). […] Insulin was measured in the cell lysates using specific ELISA kits (Ultrasensitive Insulin ELISA, ALPCO Diagnostics) and normalised to DNA content.

INS-1 cells = assay: Glucose stimulated insulin secretion (GSIS) in INS-1 cells, insulin by ELISA; format: cell-based, rat; details: FIG. 2
Method: INS-1 cellular model: The β pancreatic INS-1 cells were selected for their insulin secretion profile in response to glucose and to other physiological or pharmacological insulin secretagogues such as sulfonylureas and GLP-1. The cells were cultured in complete medium, RPMI 1640 11 mM glucose supplemented with 1 mM sodium pyruvate, 50 μM 2-mercaptoethanol, 2 mM glutamine, 10 mM HEPES, 100 IU/mL penicillin, 100 μg/mL streptomycin and 10% heat-inactivated foetal calf serum (FCS), as described by Asfari et al. (Endocrinology 130: 167-178, 1992). For the insulin secretion assay, INS-1 cells were plated and cultured in 96-well poly ornithine coated plates. The day before insulin secretion test, the medium were removed and replaced by RPMI 5 mM glucose supplemented with FCS 1%. The day of the insulin secretion test, the cells were washed with Krebs-Ringer Bicarbonate HEPES buffer (KRBH; pH 7.4) 0.1% BSA and pre-incubated for 30 min at 37° C. in KRBH 0.1% BSA containing 2.8 mM glucose. The cells were then washed again with KRBH and incubated with the tested ingredients for 60 min in KRBH 0.1% BSA containing glucose (5 or 16 mM). The supernatants were collected and frozen before insulin determination. The insulin concentration in the collected supernatants were measured by an ELISA kit according to the manufacturer recommendations and using a rat insulin antibody (Insulin rat high range ELISA Alpco Cat no 80-INSRTH-E10). Very briefly, rat monoclonal antibodies specific for insulin were immobilized to 96-well plates. Standards, samples and controls were added to the appropriate wells with a horseradish peroxidase enzyme-labeled monoclonal antibody (Conjugate). After incubation, the microplates were washed to remove unbound Conjugate and a TMB substrate solution was added to react with the bound Conjugate. Finally, after addition of a stop solution, the optical density was measured at 450 nm using a reference wavelength of 620 nm. The intensity of the yellow color is directly proportional to the amount of insulin within the samples. […]

## O[C@H]1[C@H](O)[C@@H](O)[C@H](O)[C@@H](O)[C@@H]1O [scyllo-inositol, (1r,2r,3r,4r,5r,6r)-Cyclohexane-1,2,3,4,5,6-hexol]
[1]
  mean time to reach the maximum level after ingestion: about 3.8 h
Human primary islets
  effect on insulin secretion over the control condition (5 mM glucose): synergistic effect
INS-1 cells; 20 μM scyllo-inositol
  glucose stimulated insulin secretion (GSIS), expressed as a percentage versus glucose: 120%
INS-1 cells; 2000 μM scyllo-inositol
  glucose stimulated insulin secretion (GSIS), expressed as a percentage versus glucose: 142%
INS-1 cells; doses from 20 to 2000 μM
  concentration at which GSIS reaches a plateau: 1000 to 2000 µM
